# Experimental data reported in ChEMBL document CHEMBL4725235, “Small molecule DTDQ exerts anti-metastatic effects in DU145 human castration-resistant prostate cancer cells via modulations of ERK, JNK, p38 and c-Myc signaling pathways” (Bioorg Med Chem Lett, 2020).
# Calls of active or inactive are those of the source. No cut-off for these calls is given here.
# Legend:
# PC-3 [1] = assay: Inhibition of metastasis in human PC-3 cells assessed as reduction in MMP2 expression at 12 to 24 uM incubated for 48 hrs by Western blot analysis; assay type: functional, cell-based; settings: dose microM 12-24, time 48.0 hrs
# DU-145 [2] = assay: Inhibition of cell migration in human DU-145 cells at 12 to 24 uM incubated for 24 hrs by wound healing assay; assay type: functional, cell-based; settings: dose microM 12-24, time 24.0 hrs
# PC-3 [3] = assay: Modulatory activity of MAPK signaling pathway in human PC-3 cells assessed as reduction in c-MYC expression at 12 to 24 uM incubated for 24 hrs by Western blot analysis; assay type: cell-based; settings: filed as modulator, dose microM 12-24, time 24.0 hrs
# PC-3 [4] = assay: Cytotoxicity against human PC-3 cells assessed as reduction in cell viability at 40 uM incubated for 24 hrs by CCK8 assay relative to control; assay type: functional
# PC-3 [5] = assay: Modulatory activity of MAPK signaling pathway in human PC-3 cells assessed as beta-catenine expression at 12 to 24 uM incubated for 24 hrs by Western blot analysis; assay type: cell-based; settings: dose microM 12-24, time 24.0 hrs
# DU-145 [6] = assay: Modulatory activity of MAPK signaling pathway in human DU-145 cells assessed as reduction in c-MYC expression at 12 to 24 uM incubated for 24 hrs by Western blot analysis; assay type: cell-based; settings: filed as modulator, dose microM 12-24, time 24.0 hrs
# DU-145 [7] = assay: Cytotoxicity against human DU-145 cells assessed as reduction in cell viability at 10 uM incubated for 24 hrs by CCK8 assay relative to control; assay type: functional
# DU-145 [8] = assay: Modulatory activity of MAPK signaling pathway in human DU-145 cells assessed as beta-catenine expression at 12 to 24 uM incubated for 24 hrs by Western blot analysis; assay type: cell-based; settings: dose microM 12-24, time 24.0 hrs
# DU-145 [9] = assay: Modulatory activity of MAPK signaling pathway in human DU-145 cells assessed as reduction in ERK phosphorylation incubated for 24 hrs by Western blot analysis; assay type: cell-based; settings: filed as modulator, dose microM 12-24, time 24.0 hrs
# PC-3 [10] = assay: Inhibition of colony formation in human PC-3 cells incubated for 2 weeks with media replacement for every 3 days by crystal violet staining based microscopic analysis; assay type: functional, cell-based; settings: dose microM 12-24, time 2.0 weeks
# DU-145 [11] = assay: Modulatory activity of MAPK signaling pathway in human DU-145 cells assessed as NFkappaB expression at 12 to 24 uM incubated for 24 hrs by Western blot analysis; assay type: cell-based; settings: dose microM 12-24, time 24.0 hrs
# DU-145 [12] = assay: Modulatory activity of MAPK signaling pathway in human DU-145 cells assessed as increase in JNK activation at 12 to 24 uM incubated for 24 hrs by Western blot analysis; assay type: cell-based; settings: filed as modulator, dose microM 12-24, time 24.0 hrs
# PC-3 [13] = assay: Modulatory activity of MAPK signaling pathway in human PC-3 cells assessed as NFkappaB expression at 12 to 24 uM incubated for 24 hrs by Western blot analysis; assay type: cell-based; settings: dose microM 12-24, time 24.0 hrs
# DU-145 [14] = assay: Modulatory activity of MAPK signaling pathway in human DU-145 cells assessed as increase in p38 activation at 12 to 24 uM incubated for 24 hrs by Western blot analysis; assay type: cell-based; settings: filed as modulator, dose microM 12-24, time 24.0 hrs
# PC-3 [15] = assay: Inhibition of cell migration in human PC-3 cells at 12 to 24 uM incubated for 24 hrs by wound healing assay; assay type: functional, cell-based; settings: dose microM 12-24, time 24.0 hrs
# DU-145 [16] = assay: Antiinvasive activity against human DU-145 cells assessed as inhibition of cell migration at 12 to 24 uM incubated for 20 hrs by Boyden chamber assay; assay type: functional, cell-based; settings: dose microM 12-24, time 20.0 hrs
# DU-145 [17] = assay: Inhibition of metastasis in human DU-145 cells assessed as reduction in MMP2 expression incubated for 48 hrs by Western blot analysis; assay type: functional, cell-based; settings: dose microM 12-24, time 48.0 hrs
# DU-145 [18] = assay: Inhibition of colony formation in human DU-145 cells at 12 to 24 uM incubated for 2 weeks with media replacement for every 3 days by crystal violet staining based microscopic analysis; assay type: functional, cell-based; settings: dose microM 12-24, time 2.0 weeks
# DU-145 [19] = assay: Cytotoxicity against human DU-145 cells assessed as reduction in cell viability after 24 hrs by CCK8 assay; assay type: functional, cell-based; settings: DU-145, 24 h
# PC-3 [20] = assay: Modulatory activity of MAPK signaling pathway in human PC-3 cells assessed as EST-1 expression at 12 to 24 uM incubated for 24 hrs by Western blot analysis; assay type: cell-based; settings: dose microM 12-24, time 24.0 hrs
# DU-145 [21] = assay: Inhibition of metastasis in human DU-145 cells assessed as reduction in MMP9 mRNA expression at 12 to 24 uM incubated for 48 hrs by qRT-PCR analysis; assay type: functional, cell-based; settings: dose microM 12-24, time 48.0 hrs
# DU-145 [22] = assay: Inhibition of metastasis in human DU-145 cells assessed as reduction in MMP9 expression incubated for 48 hrs by Western blot analysis; assay type: functional, cell-based; settings: dose microM 12-24, time 48.0 hrs
# PC-3 [23] = assay: Modulatory activity of MAPK signaling pathway in human PC-3 cells assessed as increase in p38 phosphorylation at 12 to 24 uM incubated for 24 hrs by Western blot analysis; assay type: cell-based; settings: dose microM 12-24, time 24.0 hrs
# PC-3 [24] = assay: Modulatory activity of MAPK signaling pathway in human PC-3 cells assessed as reduction in ERK phosphorylation incubated for 24 hrs by Western blot analysis; assay type: cell-based; settings: filed as modulator, dose microM 12-24, time 24.0 hrs
# PC-3 [25] = assay: Inhibition of metastasis in human PC-3 cells assessed as reduction in MMP9 expression at 12 to 24 uM incubated for 48 hrs by Western blot analysis; assay type: functional, cell-based; settings: dose microM 12-24, time 48.0 hrs
# PC-3 [26] = assay: Modulatory activity of MAPK signaling pathway in human PC-3 cells assessed as increase in JNK phosphorylation at 12 to 24 uM incubated for 24 hrs by Western blot analysis; assay type: cell-based; settings: filed as modulator, dose microM 12-24, time 24.0 hrs
# DU-145 [27] = assay: Inhibition of metastasis in human DU-145 cells assessed as reduction in MMP2 mRNA expression at 12 to 24 uM incubated for 48 hrs by qRT-PCR analysis; assay type: functional, cell-based; settings: dose microM 12-24, time 48.0 hrs
# DU-145 [28] = assay: Modulatory activity of MAPK signaling pathway in human DU-145 cells assessed as EST-1 expression at 12 to 24 uM incubated for 24 hrs by Western blot analysis; assay type: cell-based; settings: dose microM 12-24, time 24.0 hrs
compound,measurement,setting,value
COc1cc(C2CC(=O)Nc3cc(C)c(C)cc32)cc(OC)c1OC (stereo not drawn),inhibition,PC-3 [1],Active
same,inhibition,DU-145 [2],Active
same,Activity,PC-3 [3],Active
same,Activity,PC-3 [4],20%
same,Activity,PC-3 [5],inactive
same,Activity,DU-145 [6],Active
same,Activity,DU-145 [7],70%
same,Activity,DU-145 [8],inactive
same,Activity,DU-145 [9],Dose-dependent effect
same,inhibition,PC-3 [10],Dose-dependent effect
same,Activity,DU-145 [11],inactive
same,Activity,DU-145 [12],Active
same,Activity,PC-3 [13],inactive
same,Activity,DU-145 [14],Active
same,inhibition,PC-3 [15],Active
same,inhibition,DU-145 [16],Active
same,inhibition,DU-145 [17],Dose-dependent effect
same,inhibition,DU-145 [18],Active
same,IC50,DU-145 [19],> 200 µM
same,Activity,PC-3 [20],inactive
same,inhibition,DU-145 [21],Active
same,inhibition,DU-145 [22],Dose-dependent effect
same,Activity,PC-3 [23],inactive
same,Activity,PC-3 [24],Active
same,inhibition,PC-3 [25],inactive
same,Activity,PC-3 [26],Active
same,inhibition,DU-145 [27],Active
same,Activity,DU-145 [28],inactive
